Literature values as cited in patent US5116619A, “Vaginal progesterone tablet” (priority 1988, dated 1992).

CC(=O)[C@H]1CC[C@H]2[C@@H]3CCC4=CC(=O)CC[C@]4(C)[C@H]3CC[C@]12C [progesterone, pregn-4-ene-3,20-dione]
plasma half-life (endogenous progesterone): a few minutes | administered radiolabeled progesterone in feces (feces): about 10% | serum levels after oral administration (in vivo, po): significant but highly variable serum levels | first half-life (intravenous injections): 5 to 6 min | second half-life (intravenous injections): 42 to 45 min | local tolerability of deep intramuscular injections (parenteral, site of injection): often very painful and irritating at the site of injection | absorption by the rectal route (rectal, Steege et al.): highly variable | time in which all exogenous progesterone is metabolized (suggested by Myers et al.): ≤ 24 h | administered radiolabeled progesterone in urine (urine): 50 to 60%
